SMILES strings stand for the structures. Read-outs that look alike come from different tables or passages of the source.

In general, AUC(0-inf) refers to the area under the concentration-time curve extrapolated to infinity. Lower therefore signals less exposure. Usually Tmax stands for the time at which the peak concentration occurs. For orientation: half-life means how long it takes for the measured level to halve. Lower therefore signals rapid decline. As usually defined, the Cmax is the peak of the concentration-time curve. What is called bioavailability is dose-corrected exposure relative to a reference, in per cent.

The nature of series [1]: Plasma pharmacokinetics and urinary elimination after acute and chronic intraperitoneal administration. The format is in vivo, FVB mice. The method, then:
(§1) In this study, 18 mice received a single dose and were sampled within 24 h, and the other 18 were treated every day for three weeks (qdx21) and sampled on day 21. Mice were monitored daily for clinical signs of toxicity and distress, and body weight was measured at least twice a week. Blood samples were collected after both treatment regimens at 15 and 30 min, and 1, 3, 8, and 24 h post dose. Three mice were analyzed for each time point. After the animals were anesthetized with isoflurane, the blood was drained from the retro-orbital plexus into heparinized tubes, and then centrifuged for 10 min at 4000 g at 4 °C to separate plasma. A 24-h urine fraction was collected in three mice for each drug and route of administration. Plasma and urine samples were stored at −20 °C until analysis by HPLC-MS/MS.
[…] chromatography was performed using a series 200 HPLC system (Perkin Elmer, Waltham, MA, USA) under gradient conditions with separation on a HILIC column, 3 µm, 100 A, 2.1 × 150 mm (Waters, Milford, MA, USA), coupled with a 3 µm, 3.9 × 5.0 mm guard column of the same material at the flow rate of 0.2 mL/min. Gradient features: 10% mobile phase (MP) A (NH4HCO2 10 mM, 10% CH3CN, 0.1% HCOOH) and 90% MP B (CH3CN, 0.1% HCOOH) as the initial constant condition; then to 90% MP A in 6 min and the constant condition for 1.5 min. Return to the start condition in 0.5 min and conditioning for 5.5 min. Total run time: 13.5 min. Mass spectrometric detection was performed using an API 4000 triple quadrupole mass spectrometer (SCIEX, Framingham, MA, USA) supplied with a Turbo Ion Spray source set at 350 °C and −4200 V, analyzing biological samples with electrospray ionization (ESI) operating in negative ion mode. Purified air was used as nebulizer gas (Gas 1) and heater gas (Gas 2) and N2 was used as curtain gas and collision activated dissociation gas. They were set to 40, 50, 20, and 4 instrument units (psi), respectively. The declustering potential (DP) was set at −119 V and the collision exit potential (CXP) at –10 V. All parameters of the source were defined by direct infusion of ZST316 and ZST152 1 µg/mL in mobile phase B. The final quantification was carried out in Selected Reaction Monitoring (SRM) with the following transitions: m/z 307.9 → 208.0 (collision energy of −29.5 eV) for ZST316 and m/z 271.9 → 170.9 (collision energy −24.7 eV) for ZST152 (Figure 2 and Figure 3). Data were processed with the software package Analyst 1.6.2 (AB SCIEX).
Pharmacokinetic parameters and descriptive statistics (means, standard deviations, percentages) were calculated using Phoenix WinNonlin V 8.3 (Certara Inc., Princeton, NJ, USA).

The nature of series [2]: Tolerability of chronic intraperitoneal treatment (clinical signs, body weight). The format is in vivo. The following applies: i.p. 30 mg/Kg/day for three weeks. The method, then: as §1
Where [3] appears, read: FVB, mouse, plasma, ip, i.p. 30 mg/Kg, acute.
[4] abbreviates: FVB, mouse, plasma, ip, i.p. 30 mg/Kg/day, chronic.

For the compound `COCCNC(=N)NCCC[C@H](N)C(=O)NS(C)(=O)=O` [ZST316], the AUC(0-t) worked out at 14300 ng·h/mL in series [1] (FVB, mouse, plasma, ip, 30 mg/kg, i.p. 30 mg/Kg, acute, read-out: AUC 0-8h); 14400 ng·h/mL in series [1] (FVB, mouse, plasma, ip, 30 mg/kg, i.p. 30 mg/Kg, acute, read-out: AUC 0-last); 12300 ng·h/mL in series [1] (FVB, mouse, plasma, ip, 30 mg/kg/day, i.p. 30 mg/Kg/day, chronic, read-out: AUC 0-8h); 12600 ng·h/mL in series [1] (FVB, mouse, plasma, ip, 30 mg/kg/day, i.p. 30 mg/Kg/day, chronic, read-out: AUC 0-last). Further, the AUC(0-inf) in series [1] (setting [3]) is 14500 ng·h/mL; in series [1] (setting [4]) it was 12700 ng·h/mL. Moreover, the Tmax in series [1] (setting [3]) and in series [1] (setting [4]) was 0.25 h throughout. Further, the half-life in series [1] (setting [3]) is 5.7 h; in series [1] (setting [4]), 8.4 h. Besides, the concentration in series [1] (FVB, mouse, plasma, ip, i.p. 30 mg/Kg, acute (single dose)) peaked (Cmax) at 40200 ng/mL. Moreover, in series [1] (FVB, mouse, plasma, ip, i.p. 30 mg/Kg, acute, read-out: F % (bioavailability)), the bioavailability was 67%. Moreover, in series [1] (FVB, mouse, plasma, ip, i.p. 30 mg/Kg/day for three weeks, chronic (day 21)), the Cmax at 21 days was found to be 33600 ng/mL. In addition, the bioavailability at 21 days in series [1] (FVB, mouse, plasma, ip, i.p. 30 mg/Kg/day, chronic, read-out: F % (bioavailability)) was 59%. For the same compound, the “24-h urinary excretion (% of dose)” value was 56.1 % of dose in series [1] (i.p. 30 mg/Kg, acute) and 54.1 % of dose in series [1] (i.p. 30 mg/Kg/day, chronic). Moreover, in series [1] (i.p. 30 mg/Kg, acute/chronic not distinguished), the “urinary excretion, % of the administered dose” value is on record as 55%. In addition, the “accumulation after chronic treatment” value in series [1] (i.p. 30 mg/Kg/day for three weeks, 30 mg/kg/day) was “no accumulation was observed”. Also, the “tolerability of chronic treatment” value in series [2] is “well tolerated”. Also, the “body weight during treatment vs. untreated animals” value in series [2] (30 mg/kg/day) is recorded as “no changes in body weight vs. untreated animals”. Besides, the “clinical signs of toxicity or distress” value in series [2] (30 mg/kg/day) is on record as “no clinical signs of toxicity or distress were noticed”.

These data come from paper PMC8840040, “Pharmacokinetic Characterization of the DDAH1 Inhibitors ZST316 and ZST152 in Mice Using a HPLC-MS/MS Method” (Molecules, 2022).
